In publication PMC11062575 (Science Advances, 2024):
Changes are numbered by the printed parent chain.

Legend:
[1] = system: mouse TRPV3 Y564A; details: mouse TRPV3 Y564A vs wild type; cited from earlier work
[2] = molecular target: human TRPV3 C496A mutant (Homo sapiens, UniProt Q8NET8, C496A); details: C496A vs wild type
[3] = molecular target: T1, human TRPV3 L557A mutant (Homo sapiens, UniProt Q8NET8, L557A); assay: Fura-2AM Ca2+ uptake measurements, L557A mutant; type: cell-based
T1 sequence (Q8NET8 1-791 isoform Q8NET8-2 L557A): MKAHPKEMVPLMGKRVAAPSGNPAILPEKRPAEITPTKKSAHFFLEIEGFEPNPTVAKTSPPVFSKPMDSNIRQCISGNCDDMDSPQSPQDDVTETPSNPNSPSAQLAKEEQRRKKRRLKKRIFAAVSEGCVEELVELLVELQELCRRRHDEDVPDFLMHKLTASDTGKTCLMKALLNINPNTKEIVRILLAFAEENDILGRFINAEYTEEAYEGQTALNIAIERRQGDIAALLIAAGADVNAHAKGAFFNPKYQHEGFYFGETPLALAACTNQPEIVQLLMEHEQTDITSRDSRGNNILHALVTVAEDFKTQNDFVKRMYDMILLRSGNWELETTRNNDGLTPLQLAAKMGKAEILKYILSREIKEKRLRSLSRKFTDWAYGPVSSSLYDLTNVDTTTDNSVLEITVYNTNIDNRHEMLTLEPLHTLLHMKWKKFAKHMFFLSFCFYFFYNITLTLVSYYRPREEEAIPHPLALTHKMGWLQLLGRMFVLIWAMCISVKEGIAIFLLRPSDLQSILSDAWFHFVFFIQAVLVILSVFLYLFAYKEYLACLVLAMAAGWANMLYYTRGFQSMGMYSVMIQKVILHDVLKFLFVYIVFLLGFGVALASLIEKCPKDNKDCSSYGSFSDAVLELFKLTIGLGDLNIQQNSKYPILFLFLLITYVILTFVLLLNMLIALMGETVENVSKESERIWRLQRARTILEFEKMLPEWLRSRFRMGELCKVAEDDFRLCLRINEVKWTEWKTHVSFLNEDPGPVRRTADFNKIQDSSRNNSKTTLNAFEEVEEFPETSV

[4] = molecular target: T2, wild-type human TRPV3 (Homo sapiens, UniProt Q8NET8); assay: Fura-2AM ratiometric Ca2+ uptake measurements, wild-type TRPV3; type: cell-based
T2 sequence (Q8NET8 1-791 isoform Q8NET8-2): T1 sequence (Q8NET8 1-791 isoform Q8NET8-2 L557A) with A557L

human TRPV3 C496A mutant, sequence (Q8NET8 1-791 isoform Q8NET8-2 C496A): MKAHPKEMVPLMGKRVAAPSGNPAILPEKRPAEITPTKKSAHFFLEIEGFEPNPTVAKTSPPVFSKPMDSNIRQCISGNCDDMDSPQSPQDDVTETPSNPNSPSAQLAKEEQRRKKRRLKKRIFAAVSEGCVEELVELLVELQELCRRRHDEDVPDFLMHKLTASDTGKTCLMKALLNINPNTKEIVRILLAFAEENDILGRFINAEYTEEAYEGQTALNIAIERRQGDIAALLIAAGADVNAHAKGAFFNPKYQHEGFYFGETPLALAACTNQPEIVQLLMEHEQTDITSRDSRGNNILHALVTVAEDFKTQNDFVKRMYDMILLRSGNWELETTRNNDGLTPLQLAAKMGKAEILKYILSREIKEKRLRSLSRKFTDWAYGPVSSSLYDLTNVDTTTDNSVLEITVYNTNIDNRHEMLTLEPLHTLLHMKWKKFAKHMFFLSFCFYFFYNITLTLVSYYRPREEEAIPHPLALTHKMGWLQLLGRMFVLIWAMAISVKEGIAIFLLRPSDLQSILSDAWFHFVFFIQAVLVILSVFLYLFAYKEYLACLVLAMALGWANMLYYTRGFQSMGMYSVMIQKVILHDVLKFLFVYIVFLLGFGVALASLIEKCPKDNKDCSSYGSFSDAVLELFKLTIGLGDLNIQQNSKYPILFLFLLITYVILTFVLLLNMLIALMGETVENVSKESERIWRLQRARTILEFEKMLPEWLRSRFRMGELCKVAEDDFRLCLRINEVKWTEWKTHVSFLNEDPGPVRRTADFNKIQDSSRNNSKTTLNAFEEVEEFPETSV

SMILES | increase in 2-APB potency on Y564 substitution with alanine [1] [fold] | activating potency enhanced compared to wild-type TRPV3 [2] | EC50 [3] [µM] | maximum absolute value of the fluorescence intensity ratio (F340/F380) ([3]; L557A, n = 3, P = 0.61 vs wild type) | EC50 [4] [µM] | maximum absolute value of the fluorescence intensity ratio (F340/F380) ([4]; wild type, n = 3)
NCCOB(c1ccccc1)c1ccccc1 [2-APB, 2-aminoethoxydiphenylborane] | 20 | ~ 3 fold | – | – | – | –
CCCc1cc(O)c2c(c1)OC(C)(C)[C@@H]1CCC(C)=C[C@@H]21 [THCV, tetrahydrocannabivarin] | – | – | 0.081 ± 0.001 | 5.58 ± 0.47 | 6.1 ± 0.5 | 5.29 ± 0.04
